Patent publication US20230131501A1, “THERAPEUTIC USES OF INHIBITORS OF THE RNA-BINDING PROTEIN HuR” (University of Kansas, priority 2020, published 2023)

Legend:
Format in all cases: cell-based
PANC-1 cells = assay: MTT cell viability; conditions: Homo sapiens; PANC-1, 48 hours
Experimental: (§1) Pancreatic cancer cell lines were obtained from the American Type Culture Collection (Manassas, Va.). hTERT-HPNE cells (immortalized human pancreatic ductal epithelial cells) were donated by Dr. Anant at the University of Kansas Medical Center. MTT assay was used for cell viability detection, with starting cell number in 96-well plate of 3000/well (for 72 h treatment) or 5000/well (for 48 h treatment).
(§2) Pancreatic cancer cell lines with different endogenous HuR expression levels were treated with serial concentrations of KH-3 for 48 hours. KH-3 induced cytotoxicity in pancreatic cancer cells, with the sensitivity correlated to endogenous HuR protein levels (FIG. 30). MIA PaCa2 cells have the highest HuR protein abundance among the tested cell lines and were the most sensitive to HuR treatment (IC50=5 μM). […] BxPC-3 cells, another human pancreatic cancer cell line, have HuR expression level in the middle, and the IC50 of KH-3 was in the middle (10 μM). A non-cancerous human pancreatic ductal epithelial cell line (hTERT-HPNE) was tested under the same conditions. hTERT-HPEN cells have the lowest abundance of HuR protein compared to the cancer cells, and the cytotoxicity of KH-3 to these cells were minimal (IC50>>40 μM). There is an inverse correlation in the tested cell lines between the HuR expression levels and the sensitivity to KH-3 treatment (FIG. 30) (R=−0.71 by Pearson Tests).

BxPC-3 cells = assay: MTT cell viability; conditions: Homo sapiens; BxPC-3, 48 hours
Experimental: as §1, §2

MIA PaCa2 cells = assay: MTT cell viability; conditions: Homo sapiens, MIA PaCa-2; MIA PaCa2, 48 hours
Experimental: as §1, §2

MDA-MB-231 = assay: Cytotoxicity assay (WST-8); conditions: Homo sapiens, MDA-MB-231, 96 h, read-out: Cytotoxicity (IC50, μM) MDA-MB-231
Experimental: The cytotoxicity of the tested compounds in several cancer cell lines (HCT116 β/w, MIAPaCa-2, and MDA-MB-231) was determined by a cytotoxicity assay, where the results are provided in Table 1. Cells were seeded in 96-well culture plates (5,000 cells/well) and treated with titrated compounds in triplicate. After 96 h incubation, cell growth medium was removed and proliferation reagent WST-8 (Sigma) was added to each well and incubated at 37° C. for 1-3 h. Absorbance was then measured with a plate reader at 450 nm with correction at 650 nm. The results were expressed as the percentage of absorbance of treated wells versus that of vehicle control. IC50, the drug concentration causing 50% growth inhibition, was calculated via sigmoid curve fitting using GraphPad Prism 5.0. […]

HCT116 β/w = assay: Cytotoxicity assay (WST-8); conditions: Homo sapiens, HCT-116, 96 h incubation
Experimental: (§3) Cells were seeded in 96-well culture plates (5,000 cells/well) and treated with titrated compounds in triplicate. After 96 h incubation, cell growth medium was removed and proliferation reagent WST-8 (Sigma) was added to each well and incubated at 37° C. for 1-3 h. Absorbance was then measured with a plate reader at 450 nm with correction at 650 nm. The results were expressed as the percentage of absorbance of treated wells versus that of vehicle control.

MIAPaCa-2 = assay: Cytotoxicity assay (WST-8); conditions: Homo sapiens, MIA PaCa-2, 96 h incubation
Experimental: as §3

normal cell line WI-38 = assay: Cytotoxicity assay, normal cell line
Experimental: (§4) The cytotoxicity of the tested compounds in several cancer cell lines (HCT116 β/w, MIAPaCa-2, and MDA-MB-231) was determined by a cytotoxicity assay, where the results are provided in Table 1. Cells were seeded in 96-well culture plates (5,000 cells/well) and treated with titrated compounds in triplicate. After 96 h incubation, cell growth medium was removed and proliferation reagent WST-8 (Sigma) was added to each well and incubated at 37° C. for 1-3 h. Absorbance was then measured with a plate reader at 450 nm with correction at 650 nm. The results were expressed as the percentage of absorbance of treated wells versus that of vehicle control. IC50, the drug concentration causing 50% growth inhibition, was calculated via sigmoid curve fitting using GraphPad Prism 5.0.
(§5) The assay was then utilized to assess cytotoxicity of KH-3 against an expanded panel of cell lines (including normal cell line WI-38), where FIGS. 4A-4C provide the results.

[1] = test system: panel of cancer cell lines; assay: Cytotoxicity assay, expanded panel of cell lines
Experimental: as §4, §5

Structure (SMILES): CC(C)(C)c1ccc(S(=O)(=O)Nc2ccc3sc(/C=C/C(=O)NO)cc3c2)cc1 [KH-3]
- IC50 (PANC-1 cells): 25 µM
- IC50 (BxPC-3 cells): 10 µM
- IC50 (MIA PaCa2 cells): 5 µM
- IC50 (MDA-MB-231): 4.15 µM
- IC50 (HCT116 β/w): 3.6 µM
- IC50 (MIAPaCa-2): 4.5 µM
- concentration until which not cytotoxic (normal cell line WI-38): about 100 μM
- cytotoxicity across a panel of cancer cell lines [1]: potent cytotoxicity
